Data from patent publication US9986740B2, “Methods of identifying insect-TRPA1 modulators” (BRANDEIS UNIVERSITY, priority 2010, dated 2018).

Key:
uninjected oocytes = assay: Two-electrode voltage clamping on uninjected oocytes; assay type: cell-based, Xenopus laevis; conditions: 3 mM AITC, 1 mM CA, 0.1 mM NMM
dTRPA1 = biological target: T1, dTRPA1 (Drosophila melanogaster, UniProt Q7Z020); assay: Larval neuromuscular junction electrophysiology, dTRPA1 expressed in motor neurons; assay type: cell-based; conditions: third instar larval muscles
T1 sequence (Q7Z020 1-1197): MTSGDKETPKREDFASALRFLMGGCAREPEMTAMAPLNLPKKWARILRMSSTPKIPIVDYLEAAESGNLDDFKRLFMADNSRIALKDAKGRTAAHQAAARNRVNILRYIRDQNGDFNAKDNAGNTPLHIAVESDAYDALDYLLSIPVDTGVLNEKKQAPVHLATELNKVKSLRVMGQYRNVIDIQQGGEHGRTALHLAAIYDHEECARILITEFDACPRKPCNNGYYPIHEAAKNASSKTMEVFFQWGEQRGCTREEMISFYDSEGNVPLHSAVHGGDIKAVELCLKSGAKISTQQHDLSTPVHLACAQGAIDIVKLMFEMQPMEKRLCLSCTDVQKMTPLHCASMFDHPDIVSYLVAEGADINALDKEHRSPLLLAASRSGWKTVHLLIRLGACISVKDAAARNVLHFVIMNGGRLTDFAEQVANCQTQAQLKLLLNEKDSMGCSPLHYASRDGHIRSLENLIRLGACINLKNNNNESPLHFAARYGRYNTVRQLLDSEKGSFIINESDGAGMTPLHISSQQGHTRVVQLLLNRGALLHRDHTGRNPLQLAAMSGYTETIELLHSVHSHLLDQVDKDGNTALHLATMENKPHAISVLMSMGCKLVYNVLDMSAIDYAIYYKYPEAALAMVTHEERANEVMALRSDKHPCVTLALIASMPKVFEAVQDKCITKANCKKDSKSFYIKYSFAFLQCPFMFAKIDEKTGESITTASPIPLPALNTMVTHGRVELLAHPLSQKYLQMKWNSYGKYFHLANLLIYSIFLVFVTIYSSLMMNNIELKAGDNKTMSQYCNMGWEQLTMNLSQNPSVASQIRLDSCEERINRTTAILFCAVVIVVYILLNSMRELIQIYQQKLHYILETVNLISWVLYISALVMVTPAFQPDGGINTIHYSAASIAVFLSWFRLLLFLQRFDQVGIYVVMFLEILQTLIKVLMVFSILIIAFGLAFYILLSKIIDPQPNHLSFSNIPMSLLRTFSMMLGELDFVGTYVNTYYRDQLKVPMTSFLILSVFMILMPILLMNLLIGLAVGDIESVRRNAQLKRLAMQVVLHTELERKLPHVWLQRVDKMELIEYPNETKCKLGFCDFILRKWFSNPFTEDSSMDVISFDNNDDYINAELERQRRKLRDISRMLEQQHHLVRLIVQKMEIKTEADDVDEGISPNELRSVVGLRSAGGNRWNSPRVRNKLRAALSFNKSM

Painless = biological target: T2, Painless (Drosophila melanogaster, UniProt Q9W0Y6); assay: Larval neuromuscular junction electrophysiology, Painless expressed in motor neurons; assay type: cell-based; conditions: 500 μM, third instar larval muscles
T2 sequence (Q9W0Y6 1-913): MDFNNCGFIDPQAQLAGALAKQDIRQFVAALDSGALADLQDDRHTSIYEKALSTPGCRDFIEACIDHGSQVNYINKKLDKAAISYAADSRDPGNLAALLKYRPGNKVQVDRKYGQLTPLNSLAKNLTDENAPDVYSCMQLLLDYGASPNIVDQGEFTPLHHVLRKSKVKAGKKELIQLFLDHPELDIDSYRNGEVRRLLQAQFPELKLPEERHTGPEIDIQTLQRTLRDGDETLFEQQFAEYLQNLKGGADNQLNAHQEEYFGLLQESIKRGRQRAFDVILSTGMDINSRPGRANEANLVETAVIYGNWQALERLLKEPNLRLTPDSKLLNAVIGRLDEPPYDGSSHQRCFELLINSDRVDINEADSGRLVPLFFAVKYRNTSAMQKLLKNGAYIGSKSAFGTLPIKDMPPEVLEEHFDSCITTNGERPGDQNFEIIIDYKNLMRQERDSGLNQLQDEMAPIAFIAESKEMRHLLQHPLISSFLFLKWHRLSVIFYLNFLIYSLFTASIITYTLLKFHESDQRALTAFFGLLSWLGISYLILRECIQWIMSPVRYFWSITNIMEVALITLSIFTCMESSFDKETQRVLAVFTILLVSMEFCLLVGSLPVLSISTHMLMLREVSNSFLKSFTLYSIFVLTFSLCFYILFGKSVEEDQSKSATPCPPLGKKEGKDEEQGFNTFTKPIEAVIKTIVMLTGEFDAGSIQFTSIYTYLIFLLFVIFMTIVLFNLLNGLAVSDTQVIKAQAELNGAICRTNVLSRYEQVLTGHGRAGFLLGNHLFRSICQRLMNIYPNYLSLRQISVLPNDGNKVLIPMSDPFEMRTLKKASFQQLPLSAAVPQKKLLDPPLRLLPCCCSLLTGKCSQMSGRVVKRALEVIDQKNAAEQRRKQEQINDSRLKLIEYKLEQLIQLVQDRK

Drosophila flies = assay: Proboscis extension response (PER) behavioral assay; assay type: in vivo, Drosophila melanogaster

SMILES: O=CC=Cc1ccccc1 [CA, cinnamaldehyde]
- Response of uninjected oocytes (uninjected oocytes): did not respond
- Excitatory junction potentials (EJPs) driven by dTRPA1-expressing motor neurons (dTRPA1): cinnamaldehyde-responsive
- Induction of EJPs in OK371>Painless animals (Painless): does not induce
- Effect on PER in dTrpA1 loss-of-function mutants (Drosophila flies; dTrpA1 loss-of-function mutants, ingestion permitted): no reduction
- Acceptance on first offering (Drosophila flies; first of five tastant offerings): usually accepted
- Effect on proboscis extension response (PER) / feeding (Drosophila flies; wild type flies, ingestion permitted, 350 mM sucrose with 2 mM AITC, 10 mM NMM or 6 mM CA): robustly inhibited
